Experimental data reported in patent publication US20220017491A1, “COMPOUND INHIBITING YAP-TEAD BINDING, AND PHARMACEUTICAL COMPOSITION FOR PREVENTING OR TREATING CANCER, COMPRISING COMPOUND AS ACTIVE INGREDIENT” (KOREA RESEARCH INSTITUTE OF CHEMICAL TECHNOLOGY, priority 2018, published 2022).

Key:
YAP-TEAD = test: Luciferase assay of YAP-TEAD binding inhibition (TEAD luciferase reporter 8XGTIIC in HEK293T cells); type: cell-based; conditions: 10 μM, 24 hours, luciferase normalized with β-galactosidase
Description: A Luciferase assay which allows an inhibition degree of YAP-TEAD, previously reported in Cancers 2018, 10(5), 140, was used to measure an in vitro binding inhibition rate of YAP-TEAD.
HEK293T cells were purchased from American Type Culture Collection and incubated in DMEM media containing 10% FBS, L-glutamine, and penicillin/streptomycin. The HEK293T cells were seeded in a 24 well plate at a density of 1×10^5, and coated with polyethyleneamine (10 μg/mL). These cells were transfected with 8XGTIIC-luciferase (Addgene reference 34615) which is TEAD luciferase reporter plasmid and control β-galactosidase plasmid CMV-β-Gal using a lipofectamine 2000 reagent (Life Technologies, Inc.) according to the manufacturer's manual. Thereafter, the compound of the present invention was treated at a concentration of 10 μM for 24 hours, the cells were lysed using a Reporter lysis buffer (Promega, France), luciferase activity was read with a Mithras LB940 plate reader, and then normalization was performed with β-galactosidase.

HT29 cells = test: Proliferation assay for HT29 colorectal cancer cells (CellTiter-Glo cell viability); type: cell-based; conditions: Homo sapiens, HT-29; HT29 colorectal cancer cell line, 72 hours, ATP detection
Description: HT-29 which is a commercially available colorectal cancer cell line was treated with trypsin-EDTA, incubated, and seeded in a 96 well plate. […] The treated cells were incubated for further 72 hours and cell viability was measured by an ATP detection method (CellTiter-Glo LuminescentCell Viability Assay, Promega).
In order to confirm the anticancer effect of the compounds according to the present invention, a proliferation assay for HT29 cells which are a colorectal cancer cell line was performed by the above method, and IC50 values as a result are listed in the following Table 4: […]

| Compound | Inhibition(%) (YAP-TEAD) | IC50 (HT29 cells) [µM] |
| --- | --- | --- |
| CS(=O)(=O)N1CCC(CCN2C(=O)c3cccc4c(NC(=O)C5CCCCN5S(=O)(=O)c5cccs5)ccc2c34)CC1 (stereo not drawn) [Compound 106] | 99.2 | – |
| CS(=O)(=O)N1CCC(CCN2C(=O)c3cccc4c(NC(=O)C5CCCN(S(=O)(=O)c6cccs6)C5)ccc2c34)CC1 (stereo not drawn) [Compound 131] | 78 | – |
| COCCCN1C(=O)c2cccc3c(NC(=O)C4CCCN(S(=O)(=O)c5ccc6c(c5)CCO6)C4)ccc1c23 (stereo not drawn) [Compound 34] | 87 | 13.3 |
| COCCCN1C(=O)c2cccc3c(NC(=O)C4CCCN(S(=O)(=O)c5ccc(-c6ccccn6)s5)C4)ccc1c23 (stereo not drawn) [Compound 119] | 68 | – |
| COCCCN1C(=O)c2cccc3c(NC(=O)C4CCCCN4S(=O)(=O)c4scnc4C)ccc1c23 (stereo not drawn) [Compound 81] | – | 45.4 |
| COCCCN1C(=O)c2cccc3c(NC(=O)C4CCCN(S(=O)(=O)c5cc(Br)c(Br)s5)C4)ccc1c23 (stereo not drawn) [Compound 61] | – | 5.6 |
| O=C(Nc1ccc2c3c(cccc13)C(=O)N2CCc1ccc([N+](=O)[O-])cc1)C1CCCCN1S(=O)(=O)c1cccs1 (stereo not drawn) [Compound 16] | 77 | 4.24 |
| COCCCN1C(=O)c2cccc3c(NC(=O)C4CCCCN4S(=O)(=O)c4ccc(-c5ccccc5)s4)ccc1c23 (stereo not drawn) [Compound 159] | 84 | – |
| COc1ccc(CCN2C(=O)c3cccc4c(NC(=O)C5CCCN(S(=O)(=O)c6cccs6)C5)ccc2c34)cc1 (stereo not drawn) [Compound 24] | 61 | – |
| N#CCCN1C(=O)c2cccc3c(NC(=O)C4CCCCN4S(=O)(=O)c4cccs4)ccc1c23 (stereo not drawn) [Compound 21] | 59 | 34.2 |
| O=C(Nc1ccc2c3c(cccc13)C(=O)N2CCc1c[nH]c2ccccc12)C1CCCCN1S(=O)(=O)c1cccs1 (stereo not drawn) [Compound 13] | 50 | – |
| COCCCN1C(=O)c2cccc3c(NC(=O)C4CCCCN4S(=O)(=O)c4cc(Br)c(Br)s4)ccc1c23 (stereo not drawn) [Compound 80] | 77 | 5.6 |
| CS(=O)(=O)N1CCC(CCN2C(=O)c3cccc4c(NC(=O)C5CCCCN5S(=O)(=O)c5ccc6c(c5)CCO6)ccc2c34)CC1 (stereo not drawn) [Compound 133] | 59 | – |
| O=C(Nc1ccc2c3c(cccc13)C(=O)N2CCS(=O)(=O)c1ccccc1)C1CCCCN1S(=O)(=O)c1ccc2c(c1)CCO2 (stereo not drawn) [Compound 156] | 64 | – |
| O=C(Nc1ccc2c3c(cccc13)C(=O)N2Cc1ccncc1)C1CCCCN1S(=O)(=O)c1cccs1 (stereo not drawn) [Compound 18] | – | 26.4 |
| COCCN1C(=O)c2cccc3c(NC(=O)C4CCCCN4S(=O)(=O)c4cccs4)ccc1c23 (stereo not drawn) [Compound 12] | – | 30.7 |
| CS(=O)(=O)N1CCC(CCN2C(=O)c3cccc4c(NC(=O)C5CCCCN5S(=O)(=O)c5ccc6c(c5)OCCO6)ccc2c34)CC1 (stereo not drawn) [Compound 134] | 62 | – |
| COCCCN1C(=O)c2cccc3c(NC(=O)C4CCCN(S(=O)(=O)c5ccc6c(c5)OCCO6)C4)ccc1c23 (stereo not drawn) [Compound 49] | 51 | – |
| COCCCN1C(=O)c2cccc3c(NC(=O)C4CCCN(S(=O)(=O)c5c(C)n[nH]c5C)C4)ccc1c23 (stereo not drawn) [Compound 36] | 54 | – |
| O=C(Nc1ccc2c3c(cccc13)C(=O)N2CCCO)C1CCCCN1S(=O)(=O)c1cccs1 (stereo not drawn) [Compound 45] | – | 40.4 |
| COCCCN1C(=O)c2cccc3c(NC(=O)C4CCCCN4S(=O)(=O)c4ccc(N)cc4)ccc1c23 (stereo not drawn) [Compound 145] | 53 | – |
| COCCCN1C(=O)c2cccc3c(NC(=O)C4CCCCN4S(=O)(=O)c4ccc(-c5ccccc5)cc4)ccc1c23 (stereo not drawn) [Compound 152] | 77 | – |
| COCCCN1C(=O)c2cccc3c(NC(=O)C4CCCN(S(=O)(=O)c5cc6c(s5)CCCC6)C4)ccc1c23 (stereo not drawn) [Compound 65] | – | 17.5 |
| Cc1ccc(S(=O)(=O)N2CCCCC2C(=O)Nc2ccc3c4c(cccc24)C(=O)N3Cc2ccccc2)cc1 (stereo not drawn) [Compound 5] | – | 7.1 |
| COCCCN1C(=O)c2cccc3c(NC(=O)C4CCCN(S(=O)(=O)c5ccc(F)cc5)C4)ccc1c23 (stereo not drawn) [Compound 161] | 88 | – |
| COCCCN1C(=O)c2cccc3c(NC(=O)C4CCCN(S(=O)(=O)c5ccccc5)C4)ccc1c23 (stereo not drawn) [Compound 137] | 87 | – |
| COCCCN1C(=O)c2cccc3c(NC(=O)C4CCCN(S(=O)(=O)c5sc6ccc(Cl)cc6c5C)C4)ccc1c23 (stereo not drawn) [Compound 48] | 58 | – |

| Compound | Inhibition(%) (YAP-TEAD) | IC50 (HT29 cells) [µM] |
| --- | --- | --- |
| COCCCN1C(=O)c2cccc3c(NC(=O)C4CCCCN4S(=O)(=O)c4cc([N+](=O)[O-])c(Cl)s4)ccc1c23 (stereo not drawn) [Compound 38] | – | 2.2 |
| COCCCN1C(=O)c2cccc3c(NC(=O)C4CCCCN4S(=O)(=O)c4ccccc4)ccc1c23 (stereo not drawn) [Compound 138] | 79 | – |
| COCCCN1C(=O)c2cccc3c(NC(=O)C4CCCN(S(=O)(=O)c5c(C)noc5C)C4)ccc1c23 (stereo not drawn) [Compound 35] | 56 | – |
| COCCCN1C(=O)c2cccc3c(NC(=O)C4CCCN(S(=O)(=O)c5ccc6c7c(cccc57)C(=O)N6)C4)ccc1c23 (stereo not drawn) [Compound 55] | 50 | – |
| COCCCN1C(=O)c2cccc3c(NC(=O)C4CCCN(S(=O)(=O)c5ccc(OCCN(C)C)c(C)c5)C4)ccc1c23 (stereo not drawn) [Compound 123] | 54 | – |
| COc1ccc(CCN2C(=O)c3cccc4c(NC(=O)[C@H]5CC[C@H](NS(=O)(=O)c6cccs6)CC5)ccc2c34)cc1 [Compound 25] | 61 | – |
| COCCCN1C(=O)c2cccc3c(NC(=O)C4CCCCN4S(=O)(=O)c4ccc(NC(C)=O)cc4)ccc1c23 (stereo not drawn) [Compound 153] | 55 | – |
| COCCCN1C(=O)c2cccc3c(NC(=O)C4CCCCN4S(=O)(=O)c4ccco4)ccc1c23 (stereo not drawn) [Compound 160] | 53 | – |
| COCCCN1C(=O)c2cccc3c(NC(=O)C4CCCN(S(=O)(=O)c5cc(Cl)sc5Cl)C4)ccc1c23 (stereo not drawn) [Compound 71] | 91 | – |
| COCCCN1C(=O)c2cccc3c(NC(=O)C4CCCN(S(=O)(=O)c5ccc6c(c5)OC(F)(F)O6)C4)ccc1c23 (stereo not drawn) [Compound 149] | 59 | – |
| CS(=O)(=O)N1CCC(CCN2C(=O)c3cccc4c(NC(=O)C5CCCN(S(=O)(=O)c6ccco6)C5)ccc2c34)CC1 (stereo not drawn) [Compound 136] | 80 | – |
| COCCCN1C(=O)c2cccc3c(NC(=O)C4CCCCN4S(=O)(=O)c4cccc(C(F)(F)F)n4)ccc1c23 (stereo not drawn) [Compound 82] | – | 30.6 |
| COCCCN1C(=O)c2cccc3c(NC(=O)C4CCCN(S(=O)(=O)c5ccc(-c6ccccc6)s5)C4)ccc1c23 (stereo not drawn) [Compound 158] | 61 | – |
| COc1ccc(CCN2C(=O)c3cccc4c(NC(=O)C5CCC(NS(=O)(=O)c6cccs6)CC5)ccc2c34)cc1 (stereo not drawn) [Compound 22] | 78 | – |
| CS(=O)(=O)N1CCC(CCN2C(=O)c3cccc4c(NC(=O)C5CCCCN5S(=O)(=O)c5ccco5)ccc2c34)CC1 (stereo not drawn) [Compound 139] | 98 | – |
| COCCCN1C(=O)c2cccc3c(NC(=O)C4CCCN(S(=O)(=O)c5c(C)c(C)c6c(c5C)CC(C)(C)O6)C4)ccc1c23 (stereo not drawn) [Compound 50] | 63 | – |
| O=C(Nc1ccc2c3c(cccc13)C(=O)N2Cc1ccccc1)C1CCCN1S(=O)(=O)c1cccs1 (stereo not drawn) [Compound 3] | 63 | – |
| COCCCN1C(=O)c2cccc3c(NC(=O)C4CCCN(S(=O)(=O)c5sc(NC(C)=O)nc5C)C4)ccc1c23 (stereo not drawn) [Compound 47] | – | 29.2 |
| COCCCN1C(=O)c2cccc3c(NC(=O)C4CCCN(S(=O)(=O)c5csc6ccccc56)C4)ccc1c23 (stereo not drawn) [Compound 76] | 87 | – |
| CS(=O)(=O)N1CCCCC1C(=O)Nc1ccc2c3c(cccc13)C(=O)N2Cc1ccccc1 (stereo not drawn) [Compound 9] | – | 25.3 |
| COCCCN1C(=O)c2cccc3c(NC(=O)C4CCCCN4S(=O)(=O)c4cccc(F)c4)ccc1c23 (stereo not drawn) [Compound 162] | 74 | – |
| O=C(Nc1ccc2c3c(cccc13)C(=O)N2CCc1ccc(Cl)cc1Cl)C1CCCCN1S(=O)(=O)c1cccs1 (stereo not drawn) [Compound 26] | 100 | – |
| O=C(Nc1ccc2c3c(cccc13)C(=O)N2Cc1ccccc1)C1CCCCN1S(=O)(=O)c1ccc([N+](=O)[O-])cc1 (stereo not drawn) [Compound 6] | – | 7.29 |
| O=C(Nc1ccc2c3c(cccc13)C(=O)N2CCS(=O)(=O)c1ccccc1)C1CCCN(S(=O)(=O)c2ccc3c(c2)CCO3)C1 (stereo not drawn) [Compound 155] | 66 | – |
| COCCCN1C(=O)c2cccc3c(NC(=O)C4CCCN(S(=O)(=O)c5ccc(-c6ccccc6)cc5)C4)ccc1c23 (stereo not drawn) [Compound 151] | 57 | – |
| COCCCN1C(=O)c2cccc3c(NC(=O)C4CCCN(S(=O)(=O)c5cccs5)C4)ccc1c23 (stereo not drawn) [Compound 28] | 81 | – |
